Experimental data taken from PubChem BioAssay (NCI).
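Interpolation was linear, between the two tested concentrations surrounding the appropriate level; five concentrations were tested over 48 hours in 96-well plates. Here, GI50 denotes the concentration required for 50% inhibition of growth. TGI denotes the concentration required for complete inhibition of growth.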

Experiments:
Experiment in all cases: NCI tumour cell line growth inhibition, 48 h
[1] = tested on: CCRF-CEM leukemia
[2] = tested on: UACC-62 melanoma
[3] = tested on: HCT-15 colon
[4] = tested on: SF-539 CNS
[5] = tested on: MDA-MB-231 breast
[6] = tested on: NCI-H23 lung
[7] = tested on: SF-295 CNS
[8] = tested on: EKVX NSCLC
[9] = tested on: 786-0 renal
[10] = tested on: HOP-62 NSCLC
[11] = tested on: MDA-MB-435
[12] = tested on: SK-OV-3 ovarian
[13] = tested on: SR leukemia
[14] = tested on: OVCAR-4 ovarian
[15] = tested on: COLO 205 colon
[16] = tested on: RPMI-8226 leukemia
[17] = tested on: UACC-257 melanoma
[18] = tested on: A549 NSCLC
[19] = tested on: HL-60(TB) leukemia
[20] = tested on: A498 renal
[21] = tested on: SF-268 CNS
[22] = tested on: SK-MEL-2 melanoma
[23] = tested on: OVCAR-8 ovarian
[24] = tested on: HT29 colon
[25] = tested on: HS 578T breast
[26] = tested on: IGROV1 ovarian
[27] = tested on: BT-549 breast
[28] = tested on: NCI-H522 lung
[29] = tested on: DU-145 prostate

## C=C1C(=O)O[C@H]2[C@H]1CC/C(COC(=O)NCCc1c[nH]c3ccccc13)=C\CC[C@@]1(C)O[C@@H]21
[1]
  TGI: 3.57 µM
[2]
  GI50: 1.47 µM
  TGI: 3.2 µM
[3]
  GI50: 1.23 µM
  TGI: 2.81 µM
[4]
  GI50: 1.62 µM
  TGI: 3.29 µM
[5]
  GI50: 1.48 µM
  TGI: 3.3 µM
[6]
  GI50: 2.28 µM
  TGI: 6.81 µM
[7]
  GI50: 9.68 µM
  TGI: 21.4 µM
[8]
  GI50: 1.51 µM
  TGI: 3.57 µM
[9]
  GI50: 1.17 µM
  TGI: 2.81 µM
[10]
  GI50: 5.25 µM
  TGI: 19.8 µM
[11]
  GI50: 1.62 µM
  TGI: 3.9 µM
[12]
  GI50: 12.5 µM
  TGI: 25.1 µM
[13]
  GI50: 1.07 µM
  TGI: 7.05 µM
[14]
  GI50: 2.96 µM
  TGI: 13.1 µM
[15]
  GI50: 1.36 µM
  TGI: 3.09 µM
[16]
  GI50: 0.826 µM
  TGI: 4.26 µM
[17]
  GI50: 2 µM
  TGI: 4.83 µM
[18]
  GI50: 10.7 µM
  TGI: 25.4 µM
[19]
  GI50: 0.583 µM
  TGI: 2.86 µM
[20]
  GI50: 8.19 µM
  TGI: 21.2 µM
[21]
  GI50: 2.94 µM
  TGI: 13.5 µM
[22]
  GI50: 5.53 µM
  TGI: 20.1 µM
[23]
  GI50: 1.86 µM
  TGI: 5.21 µM
[24]
  GI50: 1.55 µM
  TGI: 3.78 µM
[25]
  GI50: 10.3 µM
  TGI: 38.4 µM
[26]
  GI50: 1.09 µM
  TGI: 2.9 µM
[27]
  GI50: 1.27 µM
  TGI: 2.82 µM
[28]
  GI50: 1.26 µM
  TGI: 2.84 µM
[29]
  GI50: 1.19 µM
  TGI: 2.68 µM
